pEC50, pIC50: −log10 of the molar value. Like-named read-outs stand apart in the source and are kept apart here.
Key:
[1] = test system: ASPC1 pancreatic adenocarcinoma cells [homozygous G12D]; assay: Cancer cell line proliferation (CellTiter-Glo), ASPC1; format: cell-based; settings: 72 hr treatment, read-out: ASPC-1 CTG (EC50)
Method: The following cancer cell lines were employed: AGS gastric carcinoma [heterozygous G12D](ATCC, CRL-1739); A-427 lung carcinoma [heterozygous G12D](ATCC, HTB-53); ASPC1 pancreatic adenocarcinoma [homozygous G12D](ATCC, CRL-1682) and SW1990 pancreatic adenocarcinoma [homozygous G12D](ATCC CRL-2172). Cell lines were cultured essentially according to ATCC recommendations.
AGS, A-427, ASPC1, SW1990, and GP2D cells were plated in 96-well tissue culture plates at 4,000 cells/well and incubated at 37° C./5% CO2 for 72 hr in 100 μl of media. 3-fold serial dilutions of each test compound were prepared ranging from 20 μM to 1.02 nM. Each cell line was then treated with test compounds at various concentrations with a final concentration of 0.5% DMSO/well, and then incubated at 37° C./5% CO2 for 72 hr. 100 µl of CellTiter-Glo® Reagent (Promega Corporation, Madison, WI) was added to each well and processed according manufacturer's protocol. Results were analyzed and EC50 values were calculated in GraphPad 7 software.

KRAS(G12D)/SOS1 = molecular target: T1, KRAS(G12D)/SOS1 (Homo sapiens, UniProt P01116, G12D); assay: KRAS(G12D)/SOS1 homogeneous time-resolved fluorescence (HTRF) assay; format: binding; settings: absence of GTP; 4° C., 3 hr
T1 construct: purchased Cisbio 63ADK000CB17PEH
Summary of the method: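 Disruption of the KRAS(G12D)/SOS1 pairing, in the absence of GTP, was read by time-resolved FRET after a 3 hr sealed incubation at 4 °C. Test compounds spanned 20 µM down to 1.02 nM in 3-fold steps. IC50 values correspond to half-maximal inhibition.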

[2] = test system: AGS gastric carcinoma cells [heterozygous G12D]; assay: Cancer cell line proliferation (CellTiter-Glo), AGS; format: cell-based; settings: Homo sapiens, 72 hr treatment, read-out: AGS CTG (EC50)
Summary of the method: (§1)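 Cells at 4,000/well grown 72 hr, then treated with 3-fold serial dilutions (20 μM to 1.02 nM, 0.5% DMSO final) for 72 hr at 37° C/5% CO2. Viability by CellTiter-Glo luminescence; EC50 values calculated.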

[3] = test system: A-427 lung carcinoma cells [heterozygous G12D]; assay: Cancer cell line proliferation (CellTiter-Glo), A-427; format: cell-based; settings: Homo sapiens, A-427 cells, 72 hr treatment, read-out: A427 CTG (EC50)
Summary of the method: as §1

T1 sequence (P01116 1-188 isoform P01116-2 G12D): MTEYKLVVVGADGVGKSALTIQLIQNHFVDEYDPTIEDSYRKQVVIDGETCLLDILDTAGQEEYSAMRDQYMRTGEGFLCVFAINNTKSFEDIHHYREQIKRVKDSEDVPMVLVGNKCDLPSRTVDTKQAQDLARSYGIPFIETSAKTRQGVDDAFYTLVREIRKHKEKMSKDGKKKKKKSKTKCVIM

SMILES | pEC50 ([1]; Homo sapiens, ASPC1, 72 h) | pIC50 (KRAS(G12D)/SOS1) | pEC50 [2] | pEC50 [3] | pEC50 [1]
C#Cc1cccc2cccc(-c3ncc4c(N5CC6CCC(C5)N6)nc(OC[C@@H]5CC[C@H](CN6CCN(Cc7ccc(-n8c(O)nnc8-c8cc(C(C)C)c(O)cc8O)cc7)CC6)N5C)nc4c3F)c12 [Compound 15] | < 6.00 | > 7.00 | 6.00 to 7.00 | 6.00 to 7.00 | –
C#Cc1cccc2cccc(-c3ncc4c(N5CC6CCC(C5)N6)nc(OC[C@@H]5CC[C@H](CN6CCN(Cc7ccc(-n8c(C(=O)NCC)nnc8-c8cc(C(C)C)c(O)cc8O)cc7)CC6)N5C)nc4c3F)c12 [Compound 16] | 6.00 to 7.00 | > 7.00 | > 7.00 | > 7.00 | –
C#Cc1cccc2cccc(-c3ncc4c(N5CC6CCC(C5)N6)nc(OCCN5CCN(Cc6ccc(-n7c(C(=O)NCC)nnc7-c7cc(C(C)C)c(O)cc7O)cc6)CC5)nc4c3F)c12 [Compound 17] | 6.00 to 7.00 | > 7.00 | > 7.00 | > 7.00 | –
C#Cc1cccc2cccc(-c3ncc4c(N5CC6CCC(C5)N6)nc(OCC5(CN6CCN(C(=O)C7CCN(Cc8ccc(-n9c(O)nnc9-c9cc(C(C)C)c(O)cc9O)cc8)CC7)CC6)CC5)nc4c3F)c12 [Compound 18] | < 6.00 | > 7.00 | 6.00 to 7.00 | 6.00 to 7.00 | –
C#Cc1cccc2cccc(-c3ncc4c(N5CC6CCC(C5)N6)nc(OCC5(CN6CCN(C(=O)C7CCN(Cc8ccc(-n9c(C(=O)NCC)nnc9-c9cc(C(C)C)c(O)cc9O)cc8)CC7)CC6)CC5)nc4c3F)c12 [Compound 19] | 6.00 to 7.00 | > 7.00 | > 7.00 | 6.00 to 7.00 | –
C#Cc1cccc2cccc(-c3ncc4c(N5CC6CCC(C5)N6)nc(OCCN5CCN(C(=O)C6CCN(Cc7ccc(-n8c(O)nnc8-c8cc(C(C)C)c(O)cc8O)cc7)CC6)CC5)nc4c3F)c12 [Compound 20] | < 6.00 | 6.00 to 7.00 | 6.00 to 7.00 | 6.00 to 7.00 | –
C#Cc1cccc2cccc(-c3ncc4c(N5CC6CCC(C5)N6)nc(OCCN5CCN(C(=O)C6CCN(Cc7ccc(-n8c(C(=O)NCC)nnc8-c8cc(C(C)C)c(O)cc8O)cc7)CC6)CC5)nc4c3F)c12 [Compound 21] | < 6.00 | 6.00 to 7.00 | > 7.00 | 6.00 to 7.00 | –
Cc1cccc2cccc(-c3ncc4c(N5CC6CCC(C5)N6)nc(OC[C@@H]5C[C@H](N6CCN(Cc7ccc(-n8c(O)nnc8-c8cc(C(C)C)c(O)cc8O)cc7)CC6)CN5C)nc4c3F)c12 [Compound 22] | < 6.00 | 6.00 to 7.00 | 6.00 to 7.00 | 6.00 to 7.00 | –
Cc1cccc2cccc(-c3ncc4c(N5CC6CCC(C5)N6)nc(OC[C@@H]5C[C@H](N6CCC(C(=O)N7CCN(Cc8ccc(-n9c(O)nnc9-c9cc(C(C)C)c(O)cc9O)cc8)CC7)CC6)CN5C)nc4c3F)c12 [Compound 23] | < 6.00 | 6.00 to 7.00 | 6.00 to 7.00 | 6.00 to 7.00 | –
CCNC(=O)c1nnc(-c2cc(C(C)C)c(O)cc2O)n1-c1ccc(CN2CCC(C(=O)N3CCN([C@H]4C[C@@H](COc5nc(N6CC7CCC(C6)N7)c6cnc(-c7cccc8cccc(C)c78)c(F)c6n5)N(C)C4)CC3)CC2)cc1 [Compound 24] | 6.00 to 7.00 | 6.00 to 7.00 | > 7.00 | > 7.00 | –
C#Cc1cccc2cccc(-c3ncc4c(N5CC6CCC(C5)N6)nc(OC[C@@H]5C[C@H](N6CCN(Cc7ccc(-n8c(O)nnc8-c8cc(C(C)C)c(O)cc8O)cc7)CC6)CN5C)nc4c3F)c12 [Compound 26] | < 6.00 | > 7.00 | 6.00 to 7.00 | 6.00 to 7.00 | –
C#Cc1cccc2cccc(-c3ncc4c(N5CC6CCC(C5)N6)nc(OCC5CC[C@H](CN6CCN(C(=O)C7CCN(Cc8ccc(-n9c(O)nnc9-c9cc(C(C)C)c(O)cc9O)cc8)CC7)CC6)N5C)nc4c3F)c12 (some centres unmarked) [Compound 27] | 6.00 to 7.00 | > 7.00 | > 7.00 | > 7.00 | –
C#Cc1cccc2cccc(-c3ncc4c(N5CC6CCC(C5)N6)nc(OC[C@@H]5CC[C@H](CN6CCN(C(=O)C7CCN(Cc8ccc(-n9c(C(=O)NCC)nnc9-c9cc(C(C)C)c(O)cc9O)cc8)CC7)CC6)N5C)nc4c3F)c12 [Compound 28] | 6.00 to 7.00 | > 7.00 | > 7.00 | > 7.00 | –
CCNC(=O)c1nnc(-c2cc(C(C)C)c(O)cc2O)n1-c1ccc(CN2CCN([C@H]3C[C@@H](COc4nc(N5CC6CCC(C5)N6)c5cnc(-c6cccc7cccc(C)c67)c(F)c5n4)N(C)C3)CC2)cc1 [Compound 29] | 6.00 to 7.00 | 6.00 to 7.00 | > 7.00 | > 7.00 | –
CC(C)c1cc(-c2nnc(O)n2-c2ccc(CN3CCN([C@H]4C[C@@H](COc5nc(N6CC7CCC(C6)N7)c6cnc(-c7cccc8ccccc78)c(F)c6n5)N(C)C4)CC3)cc2)c(O)cc1O [Compound 30] | < 6.00 | < 6.00 | 6.00 to 7.00 | 6.00 to 7.00 | –
CCNC(=O)c1nnc(-c2cc(C(C)C)c(O)cc2O)n1-c1ccc(CN2CCN([C@H]3C[C@@H](COc4nc(N5CC6CCC(C5)N6)c5cnc(-c6cc(O)cc7ccccc67)c(F)c5n4)N(C)C3)CC2)cc1 [Compound 31] | < 6.00 | > 7.00 | 6.00 to 7.00 | 6.00 to 7.00 | –
CC(C)c1cc(-c2nnc(O)n2-c2ccc(CN3CCC(C(=O)C4CCN([C@H]5C[C@@H](COc6nc(N7CC8CCC(C7)N8)c7cnc(-c8cc(O)cc9ccccc89)c(F)c7n6)N(C)C5)CC4)CC3)cc2)c(O)cc1O [Compound 32] | < 6.00 | > 7.00 | 6.00 to 7.00 | 6.00 to 7.00 | –
CC(C)c1cc(-c2nnc(O)n2-c2ccc(CN3CCN([C@H]4C[C@@H](COc5nc(N6CC7CCC(C6)N7)c6cnc(-c7cc(O)cc8ccccc78)c(F)c6n5)N(C)C4)CC3)cc2)c(O)cc1O [Compound 33] | < 6.00 | > 7.00 | 6.00 to 7.00 | < 6.00 | –
CCNC(=O)c1nnc(-c2cc(C(C)C)c(O)cc2O)n1-c1ccc(CN2CCN([C@H]3C[C@@H](COc4nc(N5CC6CCC(C5)N6)c5cnc(-c6cccc7ccccc67)c(F)c5n4)N(C)C3)CC2)cc1 [Compound 34] | 6.00 to 7.00 | < 6.00 | > 7.00 | 6.00 to 7.00 | –
C#Cc1cccc2cccc(-c3ncc4c(N5CC6CCC(C5)N6)nc(OC[C@@H]5C[C@H](N6CCN(Cc7ccc(-n8c(C(=O)NCC)nnc8-c8cc(C(C)C)c(O)cc8O)cc7)CC6)CN5C)nc4c3F)c12 [Compound 36] | 6.00 to 7.00 | > 7.00 | > 7.00 | 6.00 to 7.00 | –
Cc1cccc2cccc(-c3ncc4c(N5CC6CCC(C5)N6)nc(OC[C@@H]5C[C@H](N6CCN(Cc7ccc8c(c7)CN(C(=O)c7cc(C(C)C)c(O)cc7O)C8)CC6)CN5C)nc4c3F)c12 [Compound 37] | – | > 7.00 | 6.00 to 7.00 | 6.00 to 7.00 | 6.00 to 7.00
CCNC(=O)c1nnc(-c2cc(C(C)C)c(O)cc2O)n1-c1ccc(CN2CCC(C(=O)N3CCN([C@H]4C[C@@H](COc5nc(N6CC7CCC(C6)N7)c6cnc(-c7cc(O)cc8ccccc78)c(F)c6n5)N(C)C4)CC3)CC2)cc1 [Compound 38] | 6.00 to 7.00 | > 7.00 | 6.00 to 7.00 | 6.00 to 7.00 | –
C#Cc1cccc2cccc(-c3ncc4c(N5CC6CCC(C5)N6)nc(OC[C@@H]5CC[C@H](CN6CCN(Cc7ccc8c(c7)CN(C(=O)c7cc(C(C)C)c(O)cc7O)C8)CC6)N5C)nc4c3F)c12 [Compound 39] | < 6.00 | > 7.00 | 6.00 to 7.00 | 6.00 to 7.00 | –
CCNC(=O)c1nnc(-c2cc(C(C)C)c(O)cc2O)n1-c1ccc(CN(C)[C@@H]2CN3CCC[C@]3(COc3nc(N4CC5CCC(C4)N5)c4cnc(-c5cc(O)cc6ccccc56)c(F)c4n3)C2)cc1 [Compound 40] | < 6.00 | > 7.00 | 6.00 to 7.00 | 6.00 to 7.00 | –
CCNC(=O)c1nnc(-c2cc(C(C)C)c(O)cc2O)n1-c1ccc(CN(C)[C@@H]2CN3CCC[C@@]3(COc3nc(N4CC5CCC(C4)N5)c4cnc(-c5cc(O)cc6ccccc56)c(F)c4n3)C2)cc1 [Compound 41] | 6.00 to 7.00 | > 7.00 | 6.00 to 7.00 | < 6.00 | –
CC(C)c1cc(-c2nnc(O)n2-c2ccc(CN(C)[C@@H]3CN4CCC[C@]4(COc4nc(N5CC6CCC(C5)N6)c5cnc(-c6cc(O)cc7ccccc67)c(F)c5n4)C3)cc2)c(O)cc1O [Compound 42] | < 6.00 | > 7.00 | < 6.00 | < 6.00 | –

Source: patent publication US20260070929A1, “METHODS AND COMPOSITIONS FOR MODULATING KRAS(G12D)” (Ranok Therapeutics (Hangzhou) Co. LTD., priority 2022, published 2026)
